# From patent publication US20060286140A1, “Implants with attached silylated therapeutic agents” (priority 2003, published 2006)
# Legend:
# S. aureus (ATCC 25923) = assay: Disc diffusion assay; format: cell-based; details: 1 μg/mL solution, 20 μL on six mm filter disk, overnight
# Description: Disc Diffusion Assay. Six mm sterile filter disks can be directly placed onto a full-grown lawn of S. aureus (ATCC 25923) culture, and known volumes (20 μL) and dilutions of the eluted antibiotic can be pipetted onto the disc. After incubation overnight, the area of the resultant adjacent clear zone that is devoid of bacterial growth can be measured and compared with the area cleared by a standard series of known doses of rifampin. A 1 μg/mL solution of rifampin should give a clear zone of 4-5 cm. The lower limit of sensitivity of this assay is expected to be in the 10 ng/mL range.
# S. aureus = details: in vitro, most strains including S. aureus; cited from earlier work
# E. faecium = details: in vitro; cited from earlier work
# E. faecalis = details: in vitro; cited from earlier work
SMILES,clear zone (S. aureus (ATCC 25923)),MIC90 (S. aureus),activity relative to linezolid (E. faecium),activity relative to quinupristin-dalfopristin (E. faecium),activity relative to linezolid (E. faecalis),activity relative to quinupristin-dalfopristin (E. faecalis)
"CO[C@H]1/C=C/O[C@@]2(C)Oc3c(C)c(O)c4c(O)c(c(/C=N/N5CCN(C)CC5)c(O)c4c3C2=O)NC(=O)/C(C)=C\C=C\[C@H](C)[C@H](O)[C@@H](C)[C@@H](O)[C@@H](C)[C@H](OC(C)=O)[C@@H]1C (relative stereo) [rifampin, (2S*,12Z,14E,16R*,17R*,18S*,19S*,20S*,21R*,22S*,23R*,24E)-5,6,9,17,19,21-hexahydroxy-23-methoxy-2,4,12,16,18,20,22-heptamethyl-8-[N-(4-methyl-1-piperazinyl)formimidoyl]-2,7-(epoxypentadeca[1,11,13]trienimino)naphtha[2,1-b]furan-1,11-deone 21-acetate]",4-5 cm,–,–,–,–,–
CN(C)c1cc(NC(=O)CNC(C)(C)C)c(O)c2c1C[C@H]1C[C@H]3[C@H](N(C)C)C(O)=C(C(N)=O)C(=O)[C@@]3(O)C(O)=C1C2=O [tigecyclin],–,less than 0.25 mg/mL,~8 fold,32 fold,~8 fold,32 fold
